Data as given in patent publication US20250215030A1, “STAT MODULATORS AND USES THEREOF” (Recludix Pharma, Inc., priority 2022, published 2025).

target: T1, pSTAT3 (pY705-STAT3) (Homo sapiens, UniProt P40763); test: MSD-pSTAT-PBMC Assay (pSTAT3, IL-6 stimulated); assay type: cell-based; details: not given
T1 construct: host or cells: cryopreserved PBMC
Excerpt: Cryopreserved Peripheral Blood Mononuclear Cells (PBMC) are from AllCells. Recombinant Human IL-4 and IL-6 are from Peprotech. Mouse monoclonal anti-STAT3 antibody, rabbit monoclonal anti-pY705-STAT3 antibody, rabbit monoclonal Anti-pY641-STAT6 antibody, and lysis buffer are from Cell Signaling Technology (CST). Mouse monoclonal anti-STAT6 antibody is from BioLegend. Assay plates, blocker, and anti-rabbit secondary antibody are from Meso Scale Discovery (MSD).
Cryopreserved PBMCs were thawed out and allowed to recover overnight in IMDM+10% heat-inactivated FBS prior to plating 50,000 (STAT3) or 25,000 (STAT6) cells per well in 96-well U-bottom tissue culture plates. Cells were treated with compound for 3 hrs, then stimulated with 10 ng/mL IL-6 (STAT3) or 1 ng/mL IL-4 (STAT6) for 10 min. Cells were then spun down and washed with ice-cold PBS prior to lysing the cell pellet with 1× lysis buffer (CST) with 1× HALT protease and phosphatase inhibitor cocktail (Thermo). Lysates were transferred to and incubated overnight at 4° C. with shaking in QuickPlex 96-well high bind assay plates (MSD) pre-coated overnight with 30 μL per well of 0.6 μg/mL mouse monoclonal anti-STAT3 antibody (STAT3) or 2 μg/mL mouse monoclonal anti-STAT6 antibody (STAT6) in 1×PBS, and pre-blocked for 1 hour with 3% Blocker-A (MSD). Captured protein in the assay plates were then washed and probed with 25 μL per well of 0.25 μg/ml rabbit monoclonal anti-pY705-STAT3 antibody (STAT3) or 0.18 μg/ml rabbit monoclonal Anti-pY641-STAT6 antibody (STAT6) in 1% Blocker-A for 1 hour at room temperature with shaking, then washed and probed with 25 ul per well of 1 ug/mi Sulfo-TAG Labeled Goat Anti-Rabbit Antibody (MSD) in 1% Blocker-A for 1 hour at room temperature with shaking. Assay plates were then washed and 150 μL of 1× Read Buffer-T (MSD) was added to each well prior to reading on an SQ120 MSD Plate Reader. Assay signal from each sample was subtracted by the signal from unstimulated control wells and normalized to DMSO control wells. IC50 values were calculated using Graph Pad Prism Dose-Response Nonlinear Regression with variable slope. For both pSTAT3 and pSTAT6 A=≤100 nM; B=>100-1000 nM; C=>1000-3000 nM; and D=>3 μM.

T1 sequence (P40763 whole entry): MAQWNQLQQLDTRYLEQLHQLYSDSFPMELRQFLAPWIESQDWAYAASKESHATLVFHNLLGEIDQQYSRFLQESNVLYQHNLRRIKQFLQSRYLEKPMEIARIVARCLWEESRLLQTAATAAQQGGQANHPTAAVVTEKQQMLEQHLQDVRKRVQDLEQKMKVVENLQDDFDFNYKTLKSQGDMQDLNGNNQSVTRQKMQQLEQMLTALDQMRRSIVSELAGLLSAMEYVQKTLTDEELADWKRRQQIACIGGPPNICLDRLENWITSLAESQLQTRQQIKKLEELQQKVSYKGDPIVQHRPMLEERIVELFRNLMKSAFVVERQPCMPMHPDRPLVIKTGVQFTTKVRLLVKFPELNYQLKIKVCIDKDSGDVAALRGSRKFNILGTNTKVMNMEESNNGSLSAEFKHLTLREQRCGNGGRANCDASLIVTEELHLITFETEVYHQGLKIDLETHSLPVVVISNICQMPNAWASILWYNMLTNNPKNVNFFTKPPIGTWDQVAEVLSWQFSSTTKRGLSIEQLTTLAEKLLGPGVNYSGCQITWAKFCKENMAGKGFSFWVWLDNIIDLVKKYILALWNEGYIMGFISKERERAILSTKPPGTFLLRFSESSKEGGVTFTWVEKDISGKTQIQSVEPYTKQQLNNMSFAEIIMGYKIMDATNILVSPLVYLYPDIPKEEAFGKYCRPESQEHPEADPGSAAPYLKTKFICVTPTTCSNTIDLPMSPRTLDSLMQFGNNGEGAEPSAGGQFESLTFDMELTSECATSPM

| SMILES | IC50 |
| --- | --- |
| CCCOC(=O)[C@H](C)NP(=O)(Cc1ccc2sc(C(=O)N[C@H]3C[C@H]4C[C@H]4C[C@H]4CC[C@@H](C(=O)N5CC(c6cnccc6N(C)C)C5)N4C3=O)cc2c1)Oc1ccccc1 (stereo partly drawn) [Compound 397, propyl(((2-(((3S,6S,7aR,8aS,9aR)-3-(3-(4-(dimethylamino)pyridin-3-yl)azetidine-1-carbonyl)-5-oxodecahydro-1H-cyclopropa[d]pyrrolo[1,2-a]azocin-6-yl)carbamoyl)benzo[b]thiophen-5-yl)methyl)(phenoxy)phosphoryl)-L-alaninate] | < 100 nM |
| CCCOC(=O)[C@H](C)NP(=O)(Cc1ccc2sc(C(=O)N[C@H]3C[C@H]4C[C@H]4C[C@H]4CC[C@@H](C(=O)N5CC(c6cnccc6CC)C5)N4C3=O)cc2c1)Oc1ccccc1 (stereo partly drawn) [Compound 392, propyl(((2-(((3S,6S,7aR,8aS,9aR)-3-(3-(4-ethylpyridin-3-yl)azetidine-1-carbonyl)-5-oxodecahydro-1H-cyclopropa[d]pyrrolo[1,2-a]azocin-6-yl)carbamoyl)benzo[b]thiophen-5-yl)methyl)(phenoxy)phosphoryl)-L-alaninate] | < 100 nM |
| CCCOC(=O)[C@H](C)NP(=O)(Oc1ccccc1)C(F)c1ccc2sc(C(=O)N[C@H]3C[C@H]4C[C@H]4C[C@H]4CC[C@@H](C(=O)N[C@H]5CN(C(C)=O)C[C@@H]5F)N4C3=O)cc2c1 (stereo partly drawn) [Compound 255, propyl(((2-(((3S,6S,7aR,8aS,9aR)-3-(((3S,4S)-1-acetyl-4-fluoropyrrolidin-3-yl)carbamoyl)-5-oxodecahydro-1H-cyclopropa[d]pyrrolo[1,2-a]azocin-6-yl)carbamoyl)benzo[b]thiophen-5-yl)fluoromethyl)(phenoxy)phosphoryl)-L-alaninate] | 100 to 1000 nM |
| CCCOC(=O)[C@H](C)N[P@@](=O)(Oc1ccccc1)[C@@H](F)c1ccc2sc(C(=O)N[C@H]3C[C@@H]4C[C@@H]4C[C@H]4CC[C@@H](C(=O)N5C[C@H](c6cnccc6N(C)C)CC56CC6)N4C3=O)cc2c1 (single isomer, unassigned) [Compound 434] | < 100 nM |

same assay, conditions: PBMC, compound 3 hrs, then 10 ng/mL IL-6 for 10 min; MSD pY705-STAT3; read-out: pSTAT3

| SMILES | IC50 |
| --- | --- |
| CCCOC(=O)[C@H](C)NP(=O)(OCC(F)(F)F)C(F)c1ccc2sc(C(=O)N[C@H]3C[C@@H]4C[C@@H]4C[C@H]4CC[C@@H](C(=O)N5CC(c6cnccc6C)C5)N4C3=O)cc2c1 (stereo partly drawn) [Compound 287, propyl ((fluoro(2-(((3S,6S,7aS,8aR,9aR)-3-(3-(4-methylpyridin-3-yl)azetidine-1-carbonyl)-5-oxodecahydro-1H-cyclopropa[d]pyrrolo[1,2-a]azocin-6-yl)carbamoyl)benzo[b]thiophen-5-yl)methyl)(2,2,2-trifluoroethoxy)phosphoryl)-L-alaninate] | < 100 nM |
| CC(C)OC(=O)[C@H](Cc1ccccc1)OP(=O)(Oc1ccccc1)C(F)(F)c1ccc2sc(C(=O)N[C@H]3C[C@@H]4C[C@@H]4C[C@H]4CC[C@@H](C(=O)N5CC(C(=O)N6CCOCC6)C5)N4C3=O)cc2c1 (stereo partly drawn) [Compound 167, isopropyl (2S)-2-(((difluoro(2-(((3S,6S,7aS, 8aR,9aR)-3-(3-(morpholine-4-carbonyl)azetidine-1-carbonyl)-5-oxodecahydro-1H-cyclopropa[d]pyrrolo[1,2-a]azocin-6-yl)carbamoyl)benzo[b]thiophen-5-yl)methyl) (phenoxy)phosphoryl)oxy)-3-phenyl-propanoate] | > 3000 nM |
| CCCOC(=O)[C@H](C)NP(=O)(Oc1ccccc1)C(F)c1ccc2sc(C(=O)N[C@H]3C[C@@H]4C[C@@H]4C[C@H]4CC[C@@H](C(=O)N5CC(c6nc(C)no6)C5)N4C3=O)cc2c1 (stereo partly drawn) [Compound 360, propyl ((fluoro(2-(((3S,6S,7aS,8aR,9aR)-3-(3-(3-methyl-1,2,4-oxadiazol-5-yl)azetidine-1-carbonyl)-5-oxodecahydro-1H-cyclopropa[d]pyrrolo[1,2-a]azocin-6-yl)carbamoyl)benzo[b]thiophen-5-yl)methyl)(phenoxy)phosphoryl)-L-alaninate] | < 100 nM |
| CCCOC(=O)[C@H](C)NP(=O)(Oc1ccccc1)C(F)c1ccc2sc(C(=O)N[C@H]3C[C@@H]4C[C@@H]4C[C@H]4CC[C@@H](C(=O)N5CC(c6ncccn6)C5)N4C3=O)cc2c1 (stereo partly drawn) [Compound 315, propyl ((fluoro(2-(((3S,6S,7aS,8aR,9aR)-5-oxo-3-(3-(pyrimidin-2-yl)azetidine-1-carbonyl)decahydro-1H-cyclopropa[d]pyrrolo[1,2-a]azocin-6-yl)carbamoyl)benzo[b]thiophen-5-yl)methyl)(phenoxy)phosphoryl)-L-alaninate] | 100 to 1000 nM |
| CCCOC(=O)[C@H](C)NP(=O)(Oc1ccccc1)C(F)c1ccc2sc(C(=O)N[C@H]3C[C@H]4C[C@H]4C[C@H]4CC[C@@H](C(=O)N5CC(c6cnccc6OC)C5)N4C3=O)cc2c1 (stereo partly drawn) [Compound 319, propyl ((fluoro(2-(((3S,6S,7aR,8aS,9aR)-3-(3-(4-methoxypyridin-3-yl)azetidine-1-carbonyl)-5-oxodecahydro-1H-cyclopropa[d]pyrrolo[1,2-a]azocin-6-yl)carbamoyl)benzo[b]thiophen-5-yl)methyl)(phenoxy)phosphoryl)-L-alaninate] | < 100 nM |
| CCOC(=O)[C@H](C)NP(=O)(OCC(F)(F)F)C(F)c1ccc2sc(C(=O)N[C@H]3C[C@@H]4C[C@@H]4C[C@H]4CC[C@@H](C(=O)N5CC(c6cnccc6C)C5)N4C3=O)cc2c1 (stereo partly drawn) [Compound 329, ethyl ((fluoro(2-(((3S,6S,7aS,8aR,9aR)-3-(3-(4-methylpyridin-3-yl)azetidine-1-carbonyl)-5-oxodecahydro-1H-cyclopropa[d]pyrrolo[1,2-a]azicin-6-yl)carbamoyl)benzo[b]thiophen-5-yl)methyl)(2,2,2-trifluoroethoxy)phosphoryl)-L-alaninate] | < 100 nM |
| CC(C)(C)C(=O)SCCOP(=O)(OCCSC(=O)C(C)(C)C)C(F)(F)c1ccc2sc(C(=O)N[C@H]3C[C@@H]4C[C@@H]4C[C@H]4CC[C@@H](C(=O)N5CC(F)(c6ccc(C#N)cc6)C5)N4C3=O)cc2c1 [Compound 227, S,S′-(((((2-(((3S,6S,7aS, 8aR,9aR)-3-(3-(4-cyanophenyl)-3-fluoroazetidine-1-carbonyl)-5-oxodecahydro-1H-cyclopropa[d]pyrrolo[1,2-a]azocin-6-yl)carbamoyl)benzo[b]thiophen-5-yl)difluoromethyl)phosphoryl)bis(oxy))bis(ethane-2,1-diyl)) bis(2,2-dimethyl-propanethioate)] | < 100 nM |
| CCCOC(=O)[C@H](C)N[P@@](=O)(Oc1ccccc1)[C@@H](F)c1ccc2sc(C(=O)N[C@H]3C[C@@H]4C[C@@H]4C[C@H]4CC[C@@H](C(=O)N5C[C@@H](c6cnccc6N(C)C)CC56CC6)N4C3=O)cc2c1 (single isomer, unassigned) [Compound 432] | < 100 nM |
| CCCOC(=O)C(C)NP(=O)(Oc1ccccc1)C(F)c1ccc2sc(C(=O)N[C@H]3C[C@@H]4C[C@@H]4C[C@H]4CC[C@@H](C(=O)N5C[C@@H]6[C@H]5CCN6c5cccnc5)N4C3=O)cc2c1 (stereo in doubt) [Compound 298, propyl ((fluoro(2-(((3S,6S,7aS,8aR,9aR)-5-oxo-3-((1R,5R)-2-(pyridin-3-yl)-2,6-diazabicyclo[3.2.0]heptane-6-carbonyl)decahydro-1H-cyclopropa[d]pyrrolo[1,2-a]azocin-6-yl)carbamoyl)benzo[b]thiophen-5-yl)methyl)(phenoxy)phosphoryl)-L-alaninate] | < 100 nM |
| CC(C)OC(=O)OCOP(=O)(Cc1ccc2sc(C(=O)N[C@H]3C[C@H]4C[C@H]4C[C@H]4CC[C@@H](C(=O)N[C@@H]5CCN(c6cccnc6)C5)N4C3=O)cc2c1)OCOC(=O)OC(C)C [Compound 226, diisopropyl (((((2-(((3S,6S,7aR, 8aS,9aR)-5-oxo-3-(((R)-1-(pyridin-3-yl)pyrrolidin-3-yl)carbamoyl)decahydro-1H-cyclopropa[d]pyrrolo[1,2-a]azocin-6-yl)carbamoyl)benzo[b]thiophen-5-yl)methyl)phosphoryl)bis(oxy))bis(methylene)) bis(carbonate)] | < 100 nM |
| CCCOC(=O)[C@H](C)NP(=O)(Oc1ccccc1)C(F)c1ccc2sc(C(=O)N[C@H]3C[C@H]4C[C@H]4C[C@H]4CC[C@@H](C(=O)N5CC(c6ncccn6)C5)N4C3=O)cc2c1 (stereo partly drawn) [Compound 338, propyl ((fluoro(2-(((3S,6S,7aR,8aS,9aR)-5-oxo-3-(3-(pyrimidin-2-yl)azetidine-1-carbonyl)decahydro-1H-cyclopropa[d]pyrrolo[1,2-a]azocin-6-yl)carbamoyl)benzo[b]thiophen-5-yl)methyl)(phenoxy)phosphoryl)-L-alaninate] | < 100 nM |
